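Where inhibition never reached the appropriate level, the endpoint shown equals the highest concentration tested. Otherwise, values were interpolated linearly from a five-concentration, 48-hour dose response in 96-well plates. GI50: concentration for 50% inhibition of growth.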 Calls of active or inactive are those of the source. Rule as the data show it: active = GI50 up to about 1.1 µM and inactive = higher.
Assays:
Assay in all cases: DTP human tumour cell line panel, 48 h
[1] = tested on: MOLT-4
[2] = tested on: EKVX
[3] = tested on: 786-0
[4] = tested on: SN12C
[5] = tested on: SF-268
[6] = tested on: A549
[7] = tested on: UO-31
[8] = tested on: KM12
[9] = tested on: SW-620
[10] = tested on: Hs-578T
[11] = tested on: DU-145
[12] = tested on: SK-OV-3
[13] = tested on: CCRF-CEM
[14] = tested on: SK-MEL-5
[15] = tested on: TK-10
[16] = tested on: SF-295
[17] = tested on: HCT-15
[18] = tested on: MDA-N
[19] = tested on: A498
[20] = tested on: SK-MEL-2

Row | SMILES | GI50 [1] | GI50 [2] | GI50 [3] | GI50 [4] | GI50 [5] | GI50 [6] | GI50 [7] | GI50 [8] | GI50 [9] | GI50 [10] | GI50 [11] | GI50 [12] | GI50 [13] | GI50 [14] | GI50 [15] | GI50 [16] | GI50 [17] | GI50 [18] | GI50 [19] | GI50 [20]
1 | Cc1c(C)c(S(=O)(=O)N(CCCCCCN)OCCCN)c(C)c2c1OC(C)(C)CC2 | 2.18 µM (inactive) | 6.65 µM (inactive) | 3.22 µM (inactive) | 13 µM (inactive) | 6.93 µM (inactive) | 4.94 µM (inactive) | 11.8 µM (inactive) | 1.91 µM (inactive) | 7.45 µM (inactive) | 3.72 µM (inactive) | 26.4 µM (inactive) | 10.1 µM (inactive) | 2.31 µM (inactive) | 10.6 µM (inactive) | 14.3 µM (inactive) | 7.5 µM (inactive) | 15.1 µM | 2.81 µM (inactive) | 16.1 µM (inactive) | 2.42 µM (inactive)
2 | O=C(O)C1=C(C(=O)O)N(c2ccncc2)C(c2ccco2)=CC1c1ccccc1[N+](=O)[O-] (stereo not given) | 3.44 µM (inactive) | 11.2 µM (inactive) | 2.04 µM (inactive) | 13.1 µM (inactive) | 13.1 µM (inactive) | 16.2 µM (inactive) | 8.26 µM (inactive) | 1.62 µM (inactive) | 8.85 µM (inactive) | 16.7 µM (inactive) | 12.1 µM (inactive) | 18 µM (inactive) | 2.69 µM (inactive) | 5.82 µM (inactive) | 6.01 µM (inactive) | 12.2 µM (inactive) | 1.81 µM | 5.56 µM (inactive) | 11.8 µM (inactive) | 17.8 µM (inactive)

Source: ChEMBL document CHEMBL1201862, “PubChem BioAssay data set” (2004)
